Test results reported in PMC10856454, “Discovery of Novel Antitumor Small-Molecule Agent with Dual Action of CDK2/p-RB and MDM2/p53” (Molecules, 2024).

Experiments:
CDK2 = molecular target: T1, CDK2 (Homo sapiens, UniProt P24941); assay: Kinase antagonist activity assay (TR-FRET), CDK2; assay type: biochemical
T1 construct: purchased Thermo Fisher Scientific
Description: (§1) The compounds were solubilized with DMSO (Solarbio Life Sciences, Beijing, China), and 11 concentrations were serially diluted at 3-fold; 100 nL of compound was added to 384-well plates, 5 μL of 2 × enzyme mixture (Thermo Fisher Scientific, Waltham, MA, USA) was added, and 5 μL of buffer was added instead of the complete inhibition control wells. Then, 1000 rpm centrifugation was performed for 30 s followed by a 15 min incubation at 23 °C. Next, 5 μL of 2 × MLight-MBP peptide (PerkinElmer, Waltham, MA, USA) was added to each well, with 1000 rpm centrifugation for 30 s and incubation at 23 °C for 90 min. At the end of the incubation, the reaction was terminated with buffer containing 15 mM EDTA and 2 nM Eu-anti-P-MBP antibody (PerkinElmer, Waltham, MA, USA), centrifuged at 1000 rpm for 1 min, and incubated at 23 °C for 60 min; the plates were read on a Perkin Elmer Envision ([…]).

CDK6 = molecular target: T2, CDK6 (Homo sapiens, UniProt Q00534); assay: Kinase antagonist activity assay (TR-FRET), CDK6; assay type: biochemical
T2 construct: purchased Thermo Fisher Scientific
T2 sequence (Q00534 whole entry): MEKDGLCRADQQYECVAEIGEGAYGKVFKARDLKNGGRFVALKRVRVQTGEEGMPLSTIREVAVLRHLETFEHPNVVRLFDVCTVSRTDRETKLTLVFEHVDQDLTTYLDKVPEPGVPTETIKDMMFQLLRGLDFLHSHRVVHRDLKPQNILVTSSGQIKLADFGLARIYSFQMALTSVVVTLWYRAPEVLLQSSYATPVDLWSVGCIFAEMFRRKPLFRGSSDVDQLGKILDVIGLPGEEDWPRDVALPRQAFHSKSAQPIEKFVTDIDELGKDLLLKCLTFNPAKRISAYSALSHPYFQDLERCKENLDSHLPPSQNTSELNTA
T2 sequence (P24385 whole entry partner): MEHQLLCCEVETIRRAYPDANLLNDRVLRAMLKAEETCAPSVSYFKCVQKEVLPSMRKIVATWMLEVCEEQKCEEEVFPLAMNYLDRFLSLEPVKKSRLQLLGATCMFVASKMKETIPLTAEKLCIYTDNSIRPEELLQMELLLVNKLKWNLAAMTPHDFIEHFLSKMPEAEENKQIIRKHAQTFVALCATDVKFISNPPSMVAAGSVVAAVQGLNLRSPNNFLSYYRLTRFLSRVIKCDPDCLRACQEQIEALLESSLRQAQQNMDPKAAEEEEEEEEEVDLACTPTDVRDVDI
Description: as §1

TOV-21G cells = assay: Cell proliferation assay (Celltiter-Glo), TOV-21G; assay type: cell-based; conditions: Homo sapiens, TOV21G, 72 h; TOV-21G (normal expression of CCNE1), three days
Description: Celltiter-Glo Luminescent Cell Viability Assay (Promega, Madison, WI, USA) was used to detect cell viability according to the manufacturer’s instructions. This assay is a homogeneous method of determining the number of viable cells in a culture based on quantitation of the ATP present, an indicator of metabolically active cells. Cells were digested and paved in white-bottomed 96-well plates with 1000 cells/100 μL cell suspension solution; then, different concentrations of compounds were added the next day. TOV-21G and HCT116 were placed in the incubator for three days and OVCAR3 for five days. Then, 100 μL Celltiter-Glo solution was added and mixed for 5 min; the luminous intensity of each well was detected with a spectrophotometer (BioTek, Winooski, VT, USA). The experiment was repeated three times to calculate the cell survival rate.

[1] = tested on: MDM2 mRNA in OVCAR3 cells; assay: q-PCR of MDM2 mRNA after III-13 treatment; assay type: cell-based, human; conditions: q-PCR after 12 h of treatment
Source text: RNA was reverse transcribed with the HiScript Q RT SuperMix for qPCR (Vazyme, Nanjing, China), and quantitative real-time PCR (qPCR) was applied using SYBR Green qPCR Mix (SparkJade, Jinan, China) on the ABI Prism 7500 Fast Real-Time PCR System (Applied Biosystems, Carlsbad, CA, USA) following the manufacturer’s protocols. The comparative CT method (ΔΔCt) was used to calculate gene expression differences, with GAPDH as the reference gene. The following primers were used (human): • ZNF311 (sense, 5′-3′): […] • ZNF311 (antisense, 5′-3′): […] • TBX15 (sense, 5′-3′): […] • TBX15 ([…], 5′-3′): […] • ZNF784 (sense, 5′-3′): […] • ZNF784 (antisense, 5′-3′): […] • SIX3 (sense, 5′-3′): […] • SIX3 (antisense, 5′-3′): […] • KLLN (sense, 5′-3′): […] • KLLN (antisense, 5′-3′): […] • P2RY1 (sense, 5′-3′): […] • P2RY1 (antisense, 5′-3′): […] • MSH4 (sense, 5′-3′): […] • MSH4 (antisense, 5′-3′): […] • STAR (sense, 5′-3′): […] • STAR (antisense, 5′-3′): […] • SUMO4 (sense, 5′-3′): […] • SUMO4 (antisense, 5′-3′): […] • ZC3H12D (sense, 5′-3′): […] • ZC3H12D (antisense, 5′-3′): […] • CCNE1 (sense, 5′-3′): […] • CCNE1 (antisense, 5′-3′): […] • MDM2 (sense, 5′-3′): […] • MDM2 (antisense, 5′-3′): […] • GAPDH (sense, 5′-3′): […] • GAPDH (antisense, 5′-3′): […]

OVCAR3 cells = assay: Cell cycle detection by flow cytometry, OVCAR3; assay type: cell-based; conditions: 24 h
Description: Cells were plated at 300,000 cells overnight in six-well plates. III-13 was added in a dose-dependent fashion and then cells were incubated for 24 h. The cells were then fixed with 75% ethanol overnight at 4 °C. The cells were centrifuged, and ethanol was removed. The cells were washed twice with 1 × PBS following staining with DAPI (4′, 6′ diamino-2-phenylindole) and analyzed using Guava easyCyte HT (Merck KGaA, Darmstadt, Germany) with a blue filter. Experiments were performed in triplicate.

HCT116 cells = assay: Colony formation, HCT116; assay type: cell-based; conditions: 14 days
Description: Cells were inoculated in six-well plates at 1000 cells per well, and III-13 was added in a dose-dependent manner after 24 h. Cells were stained with Crystal Violet Staining Solution (Beyotime, Shanghai, China) at 14 days after incubation, and the cell colonies were counted using Image J.

[2] = tested on: HCT116 transplanted tumor; assay: Tumor xenograft experiment, nude mouse model of HCT116 transplanted tumor; assay type: in vivo, Balb/c nude mice
Description: HCT116 cells (1 × 10^6) were implanted into the back of adult male Balb/c nude mice by subcutaneous injection. […] The solvent or drug containing solution was administered daily to the vehicle and dosing groups by intraperitoneal injection (0.2 mL/20 g). Tumor growth was measured every three days during treatment. At the end of the treatment, the mice were killed, and the tumors were removed and weighed.

[3] = Liver microsomal stability, mouse; assay type: in vitro ADME; conditions: Mice liver microsomes
Description: Compounds were incubated with mouse, rat, and human liver microsomal samples and NADPH at 37 °C for 5, 10, 20, 30, or 60 min. The reaction was terminated with a cold acetonitrile solution containing tolbutamide. Compound retention was determined by LC-MS/MS. The retention times, chromatographic acquisition, and chromatographic integration of compounds and positive control substances were analyzed using Analyst (AB Sciex, Framingham, MA, USA).

[4] = 50 mg/kg, intraperitoneal daily, 14 days

- IC50 (CDK2): 2.6 nM
- IC90 (CDK2): 26.2 nM
- IC50 (CDK6): 1300 nM
- IC90 (CDK6): 16000 nM
- weight loss in mice ([2]; 14 days of treatment): did not cause significant weight loss
- Remaining (T = 60 min) ([3]; 60 min): 1.29%
- CLint scaled ([3]; mouse): 840 mL/min/kg
- half-life ([3]; mouse, NADPH, 37 °C): 6.53 min
SMILES: CC1(C)CCN1C(=O)O[C@@H]1CC[C@H](c2cc(NC(=O)Cc3ccc(N4CCCC4=O)cc3)n[nH]2)C1 [III-13]
- IC50 (TOV-21G cells): 164 nM
- MDM2 mRNA expression [1]: significantly inhibited
- cell cycle arrest (OVCAR3 cells): arrested HCT116 and OVCAR3 cells in the G0/G1 phase
- number of colonies (HCT116 cells): significant reduction
- tumor volume reduced by [2, 4]: ~69.81%
- tumor weight reduced by [2, 4]: ~60.16%
- tumor volume ([2]; both 25 and 50 mg/kg, intraperitoneal daily, 14 days): significantly reduced
